Reference: patent US20100075368A1, “Media for recovery of microorganism in the presence of antibiotics” (Millipore Corporation, priority 2004, published 2010)

What was measured:
Assay type in all cases: cell-based
S. aureus (ATCC 6538) [1] = assay: Direct inoculation of SCDB broth tubes, growth in presence of antibiotic; conditions: ciprofloxacin 100 μg/mL in SCDB, 200 cfu
Procedure: Test tubes containing SCDB media in the presence or absence of magnesium cation or ciprofloxacin antibiotic were inoculated with 200 colony forming units (cfu) of S. aureus (ATCC 6538). Sample A was used with a ciprofloxacin sample (100 μg/mL) and contained no divalent cation constituent. B was used with ciprofloxacin (100 μg/mL) and contained 0.5 M magnesium cation. C was used with a control and contained 0.5M of the same divalent cation of B. D was used with a control and contained no divalent cation.

E. coli (ATCC 25922) = assay: Simulated air monitoring: antibiotic disc zone of inhibition on SCDA; conditions: Escherichia coli, disc: ofloxacin 5 ug
Procedure: (§1) One method of monitoring air in an antibiotic manufacturing plant is to impact air onto an agar surface collecting both microorganisms and antibiotic on the agar surface. This test was simulated by spreading microorganisms over an agar surface containing varying amounts of magnesium cation and then placing disks containing antibiotics onto the agar surface. The zone of inhibition around each disk was measured to give an indication of the ability of the medium to neutralize the effect of the antibiotic (method followed is similar to the susceptibility disc test used in clinical microbiology). S. aureus (ATCC 6538), P. aeruginosa (ATCC 9027) or E. coli (ATCC 25922) were spread on the agar surface of SCDA containing 0.1M, 0.2M, 0.3M, 0.4M or 0.5M magnesium cation. Discs impregnated with a known amount of antibiotic were then placed onto the bacteria on the agar plate. Plates were incubated and the zone of inhibition of bacterial growth was measured.

[2] = test system: P. aeruginosa (ATCC 9027); assay: as above; conditions: Pseudomonas aeruginosa, disc: ofloxacin 5 ug
Procedure: as §1

S. aureus (ATCC 6538) [3] = assay: as above; conditions: Staphylococcus aureus, disc: ofloxacin 5 ug
Procedure: as §1

[4] = ATCC25922, 0.0 M cation in SCDA, streptomycin 10 ug, doxycycline 30 ug
[5] = ATCC25922, 0.1M magnesium cation in SCDA, streptomycin 10 ug, doxycycline 30 ug
[6] = ATCC25922, 0.3M magnesium cation in SCDA, streptomycin 10 ug, doxycycline 30 ug
[7] = ATCC25922, 0.5M magnesium cation in SCDA, streptomycin 10 ug, doxycycline 30 ug
[8] = ATCC9027, 0.0 M cation in SCDA, streptomycin 10 ug, doxycycline 30 ug
[9] = ATCC9027, 0.1M magnesium cation in SCDA, streptomycin 10 ug, doxycycline 30 ug
[10] = ATCC9027, 0.3M magnesium cation in SCDA, streptomycin 10 ug, doxycycline 30 ug
[11] = ATCC9027, 0.5M magnesium cation in SCDA, streptomycin 10 ug, doxycycline 30 ug
[12] = ATCC6538, 0.0 M cation in SCDA, streptomycin 10 ug, doxycycline 30 ug
[13] = ATCC6538, 0.1M magnesium cation in SCDA, streptomycin 10 ug, doxycycline 30 ug
[14] = ATCC6538, 0.3M magnesium cation in SCDA, streptomycin 10 ug, doxycycline 30 ug
[15] = ATCC6538, 0.5M magnesium cation in SCDA, streptomycin 10 ug, doxycycline 30 ug

**Q.** Which “Result (growth of microorganism)” value (S. aureus (ATCC 6538) [1]; 0.5 M magnesium cation added to broth) does the source give for `O=C(O)c1cn(C2CC2)c2cc(N3CCNCC3)c(F)cc2c1=O` [Ciprofloxacin, ciprofloxacin] here?
**A.** Growth

**Q.** What about the “Result (growth of microorganism)” value (S. aureus (ATCC 6538) [1]; divalent cation added to broth: None) of the same compound?
**A.** No growth

**Q.** What does the source list for `C[C@H]1c2cccc(O)c2C(=O)C2=C(O)[C@]3(O)C(=O)C(C(N)=O)=C(O)[C@@H](N(C)C)[C@@H]3[C@@H](O)[C@@H]21` [Doxycycline, doxycycline]?
**A.** zone of inhibition at 30 µg/disc (E. coli (ATCC 25922); [4]): 18 mm; zone of inhibition at 30 µg/disc (E. coli (ATCC 25922); [5]): 6 mm; zone of inhibition at 30 µg/disc (E. coli (ATCC 25922); [6]): 6 mm; zone of inhibition at 30 µg/disc (E. coli (ATCC 25922); [7]): 6 mm; zone of inhibition at 30 µg/disc [2, 8]: 6 mm; zone of inhibition at 30 µg/disc [2, 9]: 6 mm; zone of inhibition at 30 µg/disc [2, 10]: 6 mm; zone of inhibition at 30 µg/disc [2, 11]: 6 mm; zone of inhibition at 30 µg/disc (S. aureus (ATCC 6538) [3]; [12]): 25 mm; zone of inhibition at 30 µg/disc (S. aureus (ATCC 6538) [3]; [13]): 13 mm; zone of inhibition at 30 µg/disc (S. aureus (ATCC 6538) [3]; [14]): 11 mm; zone of inhibition at 30 µg/disc (S. aureus (ATCC 6538) [3]; [15]): 13 mm

**Q.** What does the source list for `CC1COc2c(N3CCN(C)CC3)c(F)cc3c(=O)c(C(=O)O)cn1c23` (centres unmarked) [Ofloxacin, ofloxacin]?
**A.** zone of inhibition at 5 µg/disc (E. coli (ATCC 25922); [4]): 26 mm; zone of inhibition at 5 µg/disc (E. coli (ATCC 25922); [5]): 13 mm; zone of inhibition at 5 µg/disc (E. coli (ATCC 25922); ATCC25922, 0.2M magnesium cation in SCDA): 13 mm; zone of inhibition at 5 µg/disc (E. coli (ATCC 25922); [6]): 13 mm; zone of inhibition at 5 µg/disc (E. coli (ATCC 25922); ATCC25922, 0.4M magnesium cation in SCDA): 12 mm; zone of inhibition at 5 µg/disc (E. coli (ATCC 25922); [7]): 12 mm; zone of inhibition at 5 µg/disc [2, 8]: 20 mm; zone of inhibition at 5 µg/disc [2, 9]: 6 mm; zone of inhibition at 5 µg/disc ([2]; ATCC9027, 0.2M magnesium cation in SCDA): 6 mm; zone of inhibition at 5 µg/disc [2, 10]: 6 mm; zone of inhibition at 5 µg/disc ([2]; ATCC9027, 0.4M magnesium cation in SCDA): 6 mm; zone of inhibition at 5 µg/disc [2, 11]: 6 mm; zone of inhibition at 5 µg/disc (S. aureus (ATCC 6538) [3]; [12]): 23 mm; zone of inhibition at 5 µg/disc (S. aureus (ATCC 6538) [3]; [13]): 11 mm; zone of inhibition at 5 µg/disc (S. aureus (ATCC 6538) [3]; ATCC6538, 0.2M magnesium cation in SCDA): 8 mm; zone of inhibition at 5 µg/disc (S. aureus (ATCC 6538) [3]; [14]): 6 mm; zone of inhibition at 5 µg/disc (S. aureus (ATCC 6538) [3]; ATCC6538, 0.4M magnesium cation in SCDA): 7 mm; zone of inhibition at 5 µg/disc (S. aureus (ATCC 6538) [3]; [15]): 6 mm

**Q.** Which zone of inhibition at 10 µg/disc (E. coli (ATCC 25922); [4]) does the source give for `[H]/N=C(/N)N[C@H]1[C@H](O)[C@@H](O)[C@H](O[C@@H]2O[C@@H](C)[C@](O)(C=O)[C@H]2O[C@@H]2O[C@@H](CO)[C@H](O)[C@@H](O)[C@@H]2NC)[C@@H](N/C(N)=N\[H])[C@@H]1O` [Streptomycin, streptomycin] here?
**A.** 14 mm

**Q.** And the zone of inhibition at 10 µg/disc (E. coli (ATCC 25922); [5])?
**A.** 12 mm

**Q.** What about the zone of inhibition at 10 µg/disc (E. coli (ATCC 25922); [6]) of the same compound?
**A.** 9 mm

**Q.** What about the zone of inhibition at 10 µg/disc (E. coli (ATCC 25922); [7]) of the same compound?
**A.** 6 mm

**Q.** And the zone of inhibition at 10 µg/disc [2, 8]?
**A.** 11 mm

**Q.** And the zone of inhibition at 10 µg/disc [2, 9]?
**A.** 6 mm

**Q.** What about the zone of inhibition at 10 µg/disc [2, 10] of the same compound?
**A.** 6 mm

**Q.** What about the zone of inhibition at 10 µg/disc [2, 11] of the same compound?
**A.** 6 mm

**Q.** And the zone of inhibition at 10 µg/disc (S. aureus (ATCC 6538) [3]; [12])?
**A.** 17 mm

**Q.** And the zone of inhibition at 10 µg/disc (S. aureus (ATCC 6538) [3]; [13])?
**A.** 12 mm

**Q.** What about the zone of inhibition at 10 µg/disc (S. aureus (ATCC 6538) [3]; [14]) of the same compound?
**A.** 7 mm

**Q.** And the zone of inhibition at 10 µg/disc (S. aureus (ATCC 6538) [3]; [15])?
**A.** 8 mm
